The subject of assay [1] is K. pneumonia (ATCC 43816). Nature of the assay: Minimal Inhibitory Concentration (MIC) assay, K. pneumonia. The format is cell-based. Conditions: Klebsiella pneumoniae; K. pneumoniae ATCC43816, CAMHB, 20 hours at 35° C.; read-out: MIC K. pneumoniae ATCC43816. On the procedure: (§1) Example 122: Minimal Inhibitory Concentration Protocol (MIC) Assay
(§2) The in vitro potency of compounds to inhibit E. coli (ATCC 25922) and K. pneumonia (ATCC 43816) growth was assessed by MIC (Minimal Inhibitory Concentration) assay. Samples were prepared from 10 mM DMSO stock solutions. After serial 2-fold dilution in DMSO in a master plate (Greiner, Cat No: 651201), 180 μL sterile distilled water was added to 20 μL each aliquot of the samples. Then 10 μL diluted compounds were transferred into a new assay plate (Costar, 3599).
(§3) The growth medium Cation-Adjusted Mueller Hinton Broth (CAMHB) was prepared by adding the 20 mg per liter CaCl2) and 20 mg per liter MgCl2 into the MHB medium (Jianglai Company, sterilized).
(§4) Vials of each of the test microorganisms were maintained frozen in the vapor phase of a liquid nitrogen freezer. The bacteria E. coli ATCC 25922 (KWIKSTIK, 0335K) and K. pneumonia ATCC 43816 were taken out from liquid nitrogen freezer, then thawed in room temperature, and diluted in the CAMHB medium to achieve a final inoculum of 5×10^5 CFU/mL. 90 μL CAMHB with bacteria was dispensed to the assay plate and pipetted 5 times.
(§5) Then the assay plates were incubated for 20 hours at 35° C. in ambient air. Following incubation, the MIC (μg/mL), the lowest concentration of drug that inhibits visible growth of the microorganism was read and recorded throw the microscope.

The next assay has as its system E. coli (ATCC 25922). Nature of the assay: Minimal Inhibitory Concentration (MIC) assay, E. coli. The format is cell-based. As to conditions: Escherichia coli, ATCC25922; E. coli ATCC 25922, CAMHB, 20 hours at 35° C.; read-out: MIC E. coli ATCC 25922. On the procedure:
as §1, §2, §3, §4, §5

In brackets after ≈: the same amount, converted by molar mass. Bounds are passed on as bounds.

The source of these data is patent publication US20250011300A1, “PIPERAZINYLSULFONYLARYL COMPOUNDS FOR TREATMENT OF BACTERIAL INFECTIONS” (Hoffmann-La Roche Inc., priority 2021, published 2025).

A word on the MIC: it is the least concentration at which growth counts as inhibited.

On to `C[C@H]1CNCC(C(F)(F)c2cc(Cl)nc(N3CCN(S(=O)(=O)c4ccc(N5C[C@H](N)CC5=O)cc4)CC3)c2)O1` (stereo partly drawn) [Example 114, (4R)-4-amino-1-[4-[4-[6-chloro-4-[difluoro-[cis-6-methylmorpholin-2-yl]methyl]-2-pyridyl]piperazin-1-yl]sulfonylphenyl]pyrrolidin-2-one], for which the results for the MIC (in assay [1]; in the assay on E. coli (ATCC 25922)) were 1.8 µg/mL (≈ 3.08 µM) and 0.91 µg/mL (≈ 1.56 µM), respectively.
The matching figures for `NC[C@H]1CC[C@H](C(F)(F)c2cc(Cl)nc(N3CCN(S(=O)(=O)c4ccc(N5C[C@H](N)CC5=O)cc4)CC3)c2)CC1` [Example 118, (4R)-4-amino-1-[4-[4-[4-[[trans-4-(aminomethyl)cyclohexyl]-difluoro-methyl]-6-chloro-2-pyridyl]piperazin-1-yl]sulfonylphenyl]pyrrolidin-2-one]: 0.99 µg/mL (≈ 1.66 µM) and 0.5 µg/mL (≈ 0.837 µM).
On to `Cc1nc(C(F)(F)c2cc(Cl)nc(N3CCN(S(=O)(=O)c4ccc(N5C[C@H](N)CC5=O)cc4)CC3)c2)cnc1Cl` [Example 113, (4R)-4-amino-1-[4-[4-[6-chloro-4-[(5-chloro-6-methyl-pyrazin-2-yl)-difluoro-methyl]-2-pyridyl]piperazin-1-yl]sulfonylphenyl]pyrrolidin-2-one], for which the MIC in assay [1] turned out to be 0.51 µg/mL (≈ 0.833 µM); in the assay with E. coli (ATCC 25922), 0.26 µg/mL (≈ 0.424 µM).
The matching figures for `NC1CC(=O)N(c2ccc(S(=O)(=O)N3CCN(c4cc(Cc5ccccc5)cc(Cl)n4)CC3)cc2)C1` (centres unmarked) [Example 74, 4-Amino-1-[4-[4-(4-benzyl-6-chloro-2-pyridyl)piperazin-1-yl]sulfonylphenyl]pyrrolidin-2-one]: 1.18 µg/mL (≈ 2.24 µM) and 1.18 µg/mL (≈ 2.24 µM).
On the same counts, the results for `[2H]C([2H])([2H])c1cc(C(F)(F)F)nc(N2CCN(S(=O)(=O)c3ccc(N4CC(N)CC4=O)cc3)CC2)n1` (centres unmarked) [Example 66, 4-Amino-1-[4-[4-[4-(trideuteriomethyl)-6-(trifluoromethyl)pyrimidin-2-yl]piperazin-1-yl]sulfonylphenyl]pyrrolidin-2-one] are 7.52 µg/mL (≈ 15.4 µM) and 3.76 µg/mL (≈ 7.71 µM).
For the molecule `O=C1CC2(CNCCN2)CN1c1ccc(S(=O)(=O)N2CCN(c3cc(C(F)(F)c4ccccc4)cc(Cl)n3)CC2)cc1` (centres unmarked) [Example 85, 2-[4-[4-[6-Chloro-4-[difluoro(phenyl)methyl]-2-pyridyl]piperazin-1-yl]sulfonylphenyl]-2,6,9-triazaspiro[4.5]decan-3-one], the MIC (in assay [1]; with E. coli (ATCC 25922)) was 2.29 µg/mL (≈ 3.71 µM) each time.
For the molecule `O=C1O[C@@H]2[C@@H](O)[C@H](CO)[C@@H](O)O[C@@H]2N1c1ccc(S(=O)(=O)N2CCN(c3cc(C(F)(F)F)cc(Cl)n3)CC2)cc1` [Example 23, (3aS,5S,6S,7S,7aR)-3-[4-[4-[6-chloro-4-(trifluoromethyl)-2-pyridyl]piperazin-1-yl]sulfonylphenyl]-5,7-dihydroxy-6-(hydroxymethyl)-5,6,7,7a-tetrahydro-3aH-pyrano[2,3-d]oxazol-2-one], the MIC in assay [1] was found to be 60.9 µg/mL (≈ 100 µM); in the assay with E. coli (ATCC 25922), 30.4 µg/mL (≈ 50 µM).
The matching figures for `COc1nc(N2CCN(S(=O)(=O)c3ccc(N4CC(N)CC4=O)cc3)CC2)cc(C(F)(F)c2ccccc2)n1` (centres unmarked) [Example 81, 4-Amino-1-[4-[4-[6-[difluoro(phenyl)methyl]-2-methoxy-pyrimidin-4-yl]piperazin-1-yl]sulfonylphenyl]pyrrolidin-2-one]: 6.98 µg/mL (≈ 12.5 µM) and 4.36 µg/mL (≈ 7.81 µM).
The matching figures for `NC1CCN(C2CC(=O)N(c3ccc(S(=O)(=O)N4CCN(c5cc(C(F)(F)F)cc(Cl)n5)CC4)cc3)C2)C1` (centres unmarked) [Example 50, 4-(3-Aminopyrrolidin-1-yl)-1-[4-[4-[6-chloro-4-(trifluoromethyl)-2-pyridyl]piperazin-1-yl]sulfonylphenyl]pyrrolidin-2-one]: 3.81 µg/mL (≈ 6.65 µM) and 1.91 µg/mL (≈ 3.33 µM).
For the molecule `Cc1cncc(C(F)(F)c2cc(Cl)nc(N3CCN(S(=O)(=O)c4ccc(N5C[C@H](N)CC5=O)cc4)CC3)c2)n1` [Example 112, (4R)-4-amino-1-[4-[4-[6-chloro-4-[difluoro-(6-methylpyrazin-2-yl)methyl]-2-pyridyl]piperazin-1-yl]sulfonylphenyl]pyrrolidin-2-one], the MIC (in assay [1]; in the assay on E. coli (ATCC 25922)) was 0.45 µg/mL (≈ 0.778 µM) throughout.
On to `NC1CC(=O)N(c2ccc(S(=O)(=O)N3CCN(c4cc(C5(c6ccccc6)CC5)cc(Cl)n4)CC3)cc2)C1` (centres unmarked) [Example 75, 4-Amino-1-[4-[4-[6-chloro-4-(1-phenylcyclopropyl)-2-pyridyl]piperazin-1-yl]sulfonylphenyl]pyrrolidin-2-one], for which the MIC (in assay [1]; in the assay with E. coli (ATCC 25922)) was 1.22 µg/mL (≈ 2.21 µM) throughout.
For the molecule `O=C1CC(N2CCNCC2)CN1c1ccc(S(=O)(=O)N2CCN(c3cc(C(F)(F)F)cc(Cl)n3)CC2)cc1` (centres unmarked) [Example 47, 1-[4-[4-[6-Chloro-4-(trifluoromethyl)-2-pyridyl]piperazin-1-yl]sulfonylphenyl]-4-piperazin-1-yl-pyrrolidin-2-one], the MIC was 5.71 µg/mL (≈ 9.96 µM) in assay [1] and 1.91 µg/mL (≈ 3.33 µM) with E. coli (ATCC 25922).
The matching figures for `NC1CC(=O)N(c2ccc(S(=O)(=O)N3CCN(c4nc(Cl)cc(C(F)(F)c5ccccc5)n4)CC3)cc2)C1` (centres unmarked) [Example 78, 4-Amino-1-[4-[4-[4-chloro-6-[difluoro(phenyl)methyl]pyrimidin-2-yl]piperazin-1-yl]sulfonylphenyl]pyrrolidin-2-one]: 1.76 µg/mL (≈ 3.13 µM) and 0.22 µg/mL (≈ 0.391 µM).
On the same counts, the results for `N[C@@H]1CC(=O)N(c2ccc(S(=O)(=O)N3CCN(c4cc(C(F)(F)C5C[C@H]5CO)cc(Cl)n4)CC3)cc2)C1` (stereo partly drawn) [Example 117, (4R)-4-amino-1-[4-[4-[6-chloro-4-[trans-difluoro-[2-(hydroxymethyl)cyclopropyl]methyl]-2-pyridyl]piperazin-1-yl]sulfonylphenyl]pyrrolidin-2-one] are 1.9 µg/mL (≈ 3.42 µM) and 0.93 µg/mL (≈ 1.67 µM).
Take `NCC1CCC(=O)N1c1ccc(S(=O)(=O)N2CCN(c3cc(C(F)(F)c4ccccc4)cc(Cl)n3)CC2)cc1` (centres unmarked) [Example 86, 5-(Aminomethyl)-1-[4-[4-[6-chloro-4-[difluoro(phenyl)methyl]-2-pyridyl]piperazin-1-yl]sulfonylphenyl]pyrrolidin-2-one]: the MIC (in assay [1]; in the assay with E. coli (ATCC 25922)) was 1.26 µg/mL (≈ 2.19 µM) in each case.
As to `N[C@@H]1CC(=O)N(c2ccc(S(=O)(=O)N3CCN(c4cc(C(F)(F)C56CNC[C@H]5C6)cc(Cl)n4)CC3)cc2)C1` (stereo partly drawn) [Example 116, (4R)-4-amino-1-[4-[4-[4-[[cis-3-azabicyclo[3.1.0]hexan-1-yl]-difluoro-methyl]-6-chloro-2-pyridyl]piperazin-1-yl]sulfonylphenyl]pyrrolidin-2-one], the MIC in assay [1] was determined as 0.94 µg/mL (≈ 1.66 µM); in the assay on E. coli (ATCC 25922) it was 0.47 µg/mL (≈ 0.829 µM).
On the same counts, the results for `NC1CC(=O)N(c2ccc(S(=O)(=O)N3CCN(c4nc(C5CC5)cc(C(F)(F)c5ccccc5)n4)CC3)cc2)C1` (centres unmarked) [Example 80, 4-Amino-1-[4-[4-[4-cyclopropyl-6-[difluoro(phenyl)methyl]pyrimidin-2-yl]piperazin-1-yl]sulfonylphenyl]pyrrolidin-2-one] are over 28.4 µg/mL and over 28.4 µg/mL.
On the same counts, the results for `CC1COC(C(F)(F)c2cc(Cl)nc(N3CCN(S(=O)(=O)c4ccc(N5C[C@H](N)CC5=O)cc4)CC3)c2)CN1` (some centres unmarked) [Example 115] are 1.9 µg/mL (≈ 3.25 µM) and 0.97 µg/mL (≈ 1.66 µM).
On the same counts, the results for `Cc1cnc(C(F)(F)c2cc(Cl)nc(N3CCN(S(=O)(=O)c4ccc(N5C[C@H](N)CC5=O)cc4)CC3)c2)cn1` [Example 111, (4R)-4-amino-1-[4-[4-[6-chloro-4-[difluoro-(5-methylpyrazin-2-yl)methyl]-2-pyridyl]piperazin-1-yl]sulfonylphenyl]pyrrolidin-2-one] are 1.8 µg/mL (≈ 3.11 µM) and 0.9 µg/mL (≈ 1.56 µM).
Take `Cc1cc(C(F)(F)F)nc(N2CCN(S(=O)(=O)c3ccc(N4CC(N)CC4=O)cc3)CC2)n1` (centres unmarked) [Example 65, 4-Amino-1-[4-[4-[4-methyl-6-(trifluoromethyl)pyrimidin-2-yl]piperazin-1-yl]sulfonylphenyl]pyrrolidin-2-one]: the MIC in assay [1] turned out to be 7.48 µg/mL (≈ 15.4 µM); in the assay with E. coli (ATCC 25922), 3.74 µg/mL (≈ 7.72 µM).
The matching figures for `N[C@@H]1CC(=O)N(c2ccc(S(=O)(=O)N3CCN(c4cc(C(F)(F)[C@H]5C[C@H](O)C5)cc(Cl)n4)CC3)cc2)C1` [Example 119, (4R)-4-amino-1-[4-[4-[6-chloro-4-[trans-difluoro-(3-hydroxycyclobutyl)methyl]-2-pyridyl]piperazin-1-yl]sulfonylphenyl]pyrrolidin-2-one]: 0.46 µg/mL (≈ 0.827 µM) and 0.46 µg/mL (≈ 0.827 µM).
On the same counts, the results for `NC1CC(=O)N(c2ccc(S(=O)(=O)N3CCN(c4cc(C(F)(F)F)cc(Cl)n4)CC3)cn2)C1` (centres unmarked) [Example 62, 4-Amino-1-[5-[4-[6-chloro-4-(trifluoromethyl)-2-pyridyl]piperazin-1-yl]sulfonyl-2-pyridyl]pyrrolidin-2-one] are 15.5 µg/mL (≈ 30.6 µM) and 7.74 µg/mL (≈ 15.3 µM).
